Measured values from US20250084062A1, “SUBSTITUTED QUINOLINE DERIVATIVE” (ASTELLAS PHARMA INC., priority 2021, published 2025).
Where a name gives a salt, the structure may show the parent alone. Read-outs that look alike come from different tables or passages of the source.

System: acetylcholine receptor clustering in C2Cl2 cells
Test: Induction of acetylcholine receptor clustering in mouse myoblasts C2Cl2 cells (Test Example 1)
Format: cell-based
Settings: for Emax / EC50: Mus musculus; for Emax: Myoblast, read-out: Max; for EC50: Myotube
Protocol: Test Example 1: Evaluation of the Induction of Acetylcholine Receptor Clustering in Mouse Myoblasts C2Cl2 Cells
Induction of acetylcholine receptor clustering by the test compound was evaluated by using fluorescently-labeled Bungarotoxin to image and quantify the acetylcholine receptor cluster region induced by the differentiation of myoblasts into myotubes, and measure the change in area. The following test method was optimized with reference to various reports including FEBS let., 586, 3111-3116 (2012). When a concentration response curve is obtained by plotting the logarithmic concentration of the test compound on the horizontal axis and the ratio of the area of acetylcholine receptor cluster region on the vertical axis, the inducing action of the test compound can be determined.
A concentration response curve as an index indicating acetylcholine receptor clustering inducing action of the test compound in mouse C2Cl2 cells was prepared. C2Cl2 cells (ATCC Number: CRL-1772) were seeded at about 5000 cells/well on a 384-well plate (354667; Corning) coated with type I collagen and allowed to incubate at 37 degrees Celsius overnight in DMEM+20% FBS+1% penicillin/streptomycin medium. The following day, the medium was removed and replaced with a differentiation medium containing DMEM+2% FBS+1% penicillin/streptomycin, and allowed to incubate at 37 degrees Celsius for 4 days. The test compound was dissolved in DMSO and added to a differentiation medium containing 0.1 ng/ml Agrin (550-AG-100; R&D systems) such that the final concentration was […] (3-fold serial dilution) or 0.00017 to 3.3 μM (3-fold serial dilution). The final concentration of DMSO was 0.3%. After the 4 days of incubation, the differentiation medium was replaced with a differentiation medium containing the test compound and 0.1 ng/ml Agrin or a differentiation medium containing 0.1 ng/ml Agrin or 10 ng/ml Agrin alone, and allowed to incubate at 37 degrees Celsius overnight. The next day, 10 μl of DMEM containing Bungarotoxin-Alexa488 (B13422; Life technologies) was added to the differentiation medium containing test compound and Agrin and Agrin alone so that the final concentration of Bungarotoxin-Alexa488 was 1 μg/ml, and was allowed to incubate at 37 degrees Celsius for 1 hour to label the acetylcholine receptor. After removing all the medium, 4% PFA was added to each well and allowed to incubate at room temperature for 10 minutes, then washed with PBS, and allowed to incubate at room temperature for 30 minutes in PBS containing 5% goat serum and 0.3% Triton X-100. After removing the PBS solution, PBS-Tween20 (28352; Thermo fisher scientific) containing Anti-Myosin Heavy Chain eFluor (registered trademark) 660 (50-6503-82; eBioscience) and DAPI (340-07971; Dojindo) was added to each well and allowed to incubate at room temperature for 1 hour to label the myotubes and nuclei. After washing three times with PBS-Tween20, the fluorescence was imaged using IN Cell Analyzer 6000 (GE Healthcare). […] The response of control group (1) was regarded as 0% and the response of the control group (2) was regarded as 100%. For quantification, the signal of only the acetylcholine receptor present in the myotube was used to eliminate non-specific fluorescence.
EC50 and Max value were used as indicators of activity in order to quantitatively evaluate the inducing action of the test compound on acetylcholine receptor clustering. EC50 value is a test compound concentration which indicates 50% in terms of the area of acetylcholine receptor cluster region compared to that of 10 ng/ml Agrin (regarded as 100%) in the concentration response curve. EC50 was calculated by nonlinear regression analysis from the concentration response curve using the area of the cluster region of the test compound as an index. Max value is the maximum response value. […]

[1] = maximum response, area of acetylcholine receptor cluster region vs 10 ng/ml Agrin (100%), 0.1 ng/ml Agrin = 0%
[2] = C2Cl2 myotubes, with 0.1 ng/ml Agrin, concentration giving 50% of cluster area of 10 ng/ml Agrin (100%), read-out: EC50

| EC50 [2] [nM] | SMILES | Emax [1] [%] | further results |
| --- | --- | --- | --- |
|  | Cc1cc(-c2c(F)cc(S(=O)(=O)N3CC[C@H](F)C3)cc2F)cc2cc(C(=O)O)ccc12 [Example 67] |  | Emax: 94.3%; EC50: 15 nM |
| 4030 | Cc1cc(-c2ccc(S(=O)(=O)N3C[C@@H](F)C[C@H]3CO)cc2F)nc2cc(C(=O)O)ccc12 [Example 28] | 74.2 |  |
|  | Cc1cc(-c2ccc(S(=O)(=O)N3CC[C@H](F)C3)cc2CO)nc2cc(C(=O)O)ccc12 [Example 31] | 48.8 | response, % at 30 μM (vs 10 ng/ml Agrin (100%)): 48.8% at 30 μM |
| 89 | Cc1c(F)c(-c2c(F)cc(S(=O)(=O)N3CC[C@H](F)C3)cc2F)nc2cc(C3CCNCC3)ccc12 [Example 57] | 87 |  |
| 13 | Cc1cc(-c2c(F)cc(S(=O)(=O)N3CCC(F)CC3)cc2F)nc2cc(C(=O)N3CC(N)C3)ccc12 [Example 4, (3-aminoazetidin-1-yl) {2-[2,6-difluoro-4-(4-fluoropiperidine-1-sulfonyl)phenyl]-4-methylquinolin-7-yl}methanone] | 81 |  |
| 303 | Cc1c(F)c(-c2c(F)cc(S(=O)(=O)N3CC[C@H](F)C3)cc2F)nc2cc(C(=O)N3CC(C)(C(=O)O)C3)ccc12 [Example 11, 1-(2-{2,6-difluoro-4-[(3S)-3-fluoropyrrolidine-1-sulfonyl]phenyl}-3-fluoro-4-methylquinoline-7-carbonyl)-3-methylazetidine-3-carboxylic acid] | 80.2 |  |
| 3750 | Cc1cc(-c2ccc(S(=O)(=O)N3CCC[C@H]3CO)cc2F)nc2cc(C(=O)O)ccc12 [Example 48] | 74 |  |
| 96 | Cc1cc(-c2c(F)cc(S(=O)(=O)N3CC[C@H](F)C3)cc2F)nc2cc(C(=O)NC3CCNC3)ccc12 (stereo partly drawn) [Example 53] | 77.9 |  |
| 165 | Cc1cc(-c2ccc(S(=O)(=O)N3CCCCC3)cc2)nc2cc(OCCO)ccc12 [Example 63] | 104 |  |
| 724 | Cc1cc(-c2c(F)cc(S(=O)(=O)N3CCC(F)CC3)cc2F)nc2nc(C(=O)O)ccc12 [Example 38] | 78.5 |  |
| 1490 | Cc1c(F)c(-c2c(F)cc(S(=O)(=O)N3CC[C@H](F)C3)cc2F)nc2cc(C(=O)NC(C)(C)CC(=O)O)ccc12 [Example 54] | 60.8 |  |
| 21 | Cc1cc(-c2c(F)cc(S(=O)(=O)N3CCC(F)CC3)cc2F)nc2cc(C(=O)N3CC4(CNC4)C3)ccc12 [Example 14, (2,6-diazaspiro[3.3]heptan-2-yl) {2-[2,6-difluoro-4-(4-fluoropiperidine-1-sulfonyl)phenyl]-4-methylquinolin-7-yl}methanone] | 83.5 |  |
| 1820 | Cc1cc(-c2c(F)cc(S(=O)(=O)N3CC[C@H](F)C3)cc2F)nc2nc(OCC(=O)O)ccc12 [Example 6, [(7-{2,6-difluoro-4-[(3S)-3-fluoropyrrolidine-1-sulfonyl]phenyl}-5-methyl-1,8-naphthyridin-2-yl)oxy]acetic acid] | 76.3 |  |
| 43 | Cc1cc(-c2c(F)cc(S(=O)(=O)N3CCC(F)CC3)cc2F)nc2nc(C(=O)N3CC4(CN(C)C4)C3)ccc12 [Example 46] | 80.9 |  |
|  | Cc1cc(-c2c(F)cc(S(=O)(=O)N3CC[C@H](F)C3)cc2F)nc2nc(C3=CCNCC3)ccc12 [Example 62] |  | Emax: 86.4%; EC50: 1 nM |
| 65 | Cc1cc(-c2c(F)cc(S(=O)(=O)N3CC[C@H](F)C3)cc2F)nc2cc(CC(=O)O)ccc12 [Example 33] | 86.1 |  |
| 428 | Cc1cc(-c2ccc(S(=O)(=O)N3CCCCC3)cc2)nc2cc(C(=O)O)ccc12 [Example 47] | 102 |  |
| 3520 | Cc1cc(-c2ccc(S(=O)(=O)N3CCC[C@H](O)C3)cc2F)nc2cc(C(=O)O)ccc12 [Example 50] | 70.5 |  |
| 11 | CNCCNC(=O)c1ccc2c(C)cc(-c3c(F)cc(S(=O)(=O)N4CCC(F)CC4)cc3F)nc2n1 [Example 60] | 99.2 |  |
| 392 | Cc1cc(-c2c(F)cc(S(=O)(=O)N3CC[C@H](F)C3)cc2F)nc2nc(C3=CCC(C(=O)O)CC3)ccc12 (stereo partly drawn) [Example 36] | 80.2 |  |
| 3 | Cc1cc(-c2ccc(S(=O)(=O)N3CC[C@H](F)C3)cc2F)nc2cc(OCCN)ccc12 [Example 13, 2-[(2-{2-fluoro-4-[(3S)-3-fluoropyrrolidine-1-sulfonyl]phenyl}-4-methylquinolin-7-yl)oxy]ethan-1-amine hydrochloride] | 117 |  |
| 45 | COc1cc(S(=O)(=O)N2CC[C@H](F)C2)cc(F)c1-c1cc(C)c2ccc(C(=O)O)nc2c1 [Example 8, 7-{2-fluoro-4-[(3S)-3-fluoropyrrolidine-1-sulfonyl]-6-methoxyphenyl}-5-methylquinoline-2-carboxylic acid] | 88.2 |  |
|  | Cc1cc(-c2ccc(S(=O)(=O)N3CC[C@H](F)C3)cc2F)nc2cc(C(=O)NS(=O)(=O)C3CC3)ccc12 [Example 9, N-(cyclopropanesulfonyl)-2-{2-fluoro-4-[(3S)-3-fluoropyrrolidine-1-sulfonyl]phenyl}-4-methylquinoline-7-carboxamide] | 34.9 | response, % at 1.1 μM (at 1.1 μM, vs 10 ng/ml Agrin (100%)): 34.9% at 1.1 μM |
| 21 | Cc1cc(-c2c(F)cc(S(=O)(=O)N3CC[C@H](F)C3)cc2F)nc2cc(C(=O)NCCN(C)C)ccc12 [Example 43] | 91.6 |  |
| 64 | Cc1cc(-c2c(F)cc(S(=O)(=O)N3CC[C@H](F)C3)cc2F)nc2cc(C(=O)O)ccc12 [Example 1, 2-{2,6-difluoro-4-[(3S)-3-fluoropyrrolidine-1-sulfonyl]phenyl}-4-methylquinoline-7-carboxylic acid] | 91.9 |  |
| 52 | Cc1cc(-c2c(F)cc(S(=O)(=O)N3CCC(F)CC3)cc2F)nc2cc(C(=O)NC3CN(C)C3)ccc12 [Example 41] | 87 |  |
|  | CO[C@@H]1CN(S(=O)(=O)c2ccc(-c3cc(C)c4ccc(C(=O)O)cc4n3)c(F)c2)C[C@H]1F [Example 29] | 46.2 | response, % at 30 μM (vs 10 ng/ml Agrin (100%)): 46.2% at 30 μM |
| 53 | Cc1c(F)c(-c2c(F)cc(S(=O)(=O)N3CC[C@H](F)C3)cc2F)nc2cc(CCN)ccc12 [Example 56] | 97 |  |
| 1090 | Cc1cc(-c2ccc(S(=O)(=O)N3C[C@@H](O)[C@H](F)C3)cc2F)nc2cc(C(=O)O)ccc12 [Example 49] | 81.9 |  |
| 5 | Cc1c(F)c(-c2c(F)cc(S(=O)(=O)N3CCC(F)CC3)cc2F)nc2cc(C(=O)N3CC4(CN(C)C4)C3)ccc12 [Example 44] | 81.8 |  |
